Measured values published in patent US10689708B2, “Methods for treating diffuse large B-cell lymphoma and the use of biomarkers as a predictor of responsiveness to drugs” (Celgene Corporation, priority 2015, dated 2020).

Test system: relapsed or refractory DLBCL
Assay: Compound A treatment of relapsed or refractory DLBCL patients stratified by 26-gene (Table 2) classifier: PFS and tumor measurement
Format: in vivo, human
Settings: for PFS: Compound A treatment (FIG. 3)
Text: In another exemplary study, a computational decision function was applied to gene expression values for the 26 genes in Table 2 to predict the positive/negative outcome sub-group membership of relapsed or refractory DLBCL patients for responsiveness to Compound A treatment alone or in combination with other agents.
The response to Compound A treatment of each of a group of relapsed or refractory DLBCL patients was predicated based on the gene expression levels of 26 genes of Table 2, and the group of patients were classified into two populations—the population predicted to be responsive to Compound A treatment (26 genes positive population) and the other population predicted to be not responsive to Compound A (26 genes negative population).
The expression levels of the 26 genes were measured as follows: DLBCL lymph-node biopsies were formalin fixed and paraffin embedded. Nucleic acids obtained from the tissues were extracted using the Roche High Pure FPPET kit, according to the manufacturer's instructions. The RNA was quantitated using spectrophotometry (NanoDrop, Thermo Science, DE). Gene expression on approximately 200 nanograms of RNA was used to determine gene expression levels by means of NanoString technology (NanoString Technologies, WA). The total RNA was hybridized to the custom codesets at 65° C. overnight. The reaction was processed on the nCounter™ Prep Station and gene expression data was then acquired on the nCounter™ Digital Analyzer.
Then, the patients' response to Compound A treatment were measured by progression free survival (PFS). The results are shown in FIG. 3, and as shown, that there is a significant benefit, as measured by PFS, of 26 gene positive population (upper line) as compared to 26 genes negative population (lower line) (PFS 17.43 weeks in 26 genes positive population versus PFS 6.57 weeks in 26 genes negative population).
Additionally, the response to Compound A of DLBCL patients with historically poor prognosis was measured by Nanostring. […] This is comparison to patients in the 26 genes positive population (blue line), in which 4 patients obtained a durable clinical response of greater than 50% decrease in tumor size (see FIG. 8). Similar results were observed when examining patients with primary refractory DLBCL that had also had at least 3 or more prior lines of therapy (see FIG. 9).

Q: How did the “PFS at 6 months” value (26 genes negative population) turn out when Cc1nc2cccc(N)c2c(=O)n1C1CCC(=O)NC1=O (centres unmarked) [Compound A, 3-(5-amino-2-methyl-4-oxo-4H-quinazolin-3-yl)-piperidine-2,6-dione] was run?
A: 5.4%

Q: And the PFS (26 genes negative population)?
A: 6.57 weeks

Q: What about the “PFS at 6 months” value (26 genes positive population) of the same compound?
A: 44.6%

Q: What about the PFS (26 genes positive population) of the same compound?
A: 17.43 weeks

Q: What about the “median PFS” value (ABC subtype of DLBCL (FIG. 7)) of the same compound?
A: 12.1 weeks

Q: And the “median PFS” value (GCB subtype of DLBCL (FIG. 7))?
A: 15.6 weeks

Q: What about the “tumor measurement, clinical response” value (majority of patients in the 26 genes negative population (FIG. 5)) of the same compound?
A: rapid progression or short responses

Q: And the “tumor measurement, clinical response” value (majority of patients in the 26 genes positive population (FIG. 4))?
A: clinical response of greater than 50% decrease in tumor size and/or have stable disease

Q: And the “tumor measurement, clinical course” value (primary refractory disease (less than complete response to R-CHOP), 26 genes negative population (FIG. 8))?
A: experienced rapid progression

Q: What about the “patients who obtained a durable clinical response of greater than 50% decrease in tumor size” value (primary refractory disease (less than complete response to R-CHOP), 26 genes positive population (FIG. 8)) of the same compound?
A: 4 patients

Q: And the “median PFS” value (unclassified subtype of DLBCL (FIG. 7))?
A: 7 weeks
